# Entries after “also recorded” stand apart in the source; their conditions may differ. Where two headings read alike, the source gives them in different places.
# Tests used:
# [1] = tested on: human liver cancer (HepG2) cells; experiment: WST-1 cytotoxicity assay in HepG2 cells; assay type: cell-based; details: for IC50: HepG2, 72 h treatment, WST-1 assay; for change in cell viability: HepG2, 72 h, 0.3 to 30 mM
# Experimental: (§1) HepG2 cells were purchased from the German Collection of Microorganisms and Cell Cultures (DSMZ, Braunschweig, Germany). HepG2 cells which constitutively express human CYP2E1 (E47 cells, HepG2-CYP2E1) and control HepG2 cells transfected with empty vector (C34 cells, HepG2- vector), originally established by Wu and Cederbaum[27], were kindly provided by C. Hellerbrand (University Medical Center Regensburg, Germany). The cells were cultured in low glucose Dulbecco’s modified eagle medium supplemented with 15% fetal calf serum and 1% Pen/Strep in an atmosphere with 5% CO2 at 37 °C and 95% air humidity.
# (§2) Cytotoxicity was determined with the WST-1 assay (Roche Diagnostics Deutschland GmbH, Mannheim, Germany). The assay is based on the ability of viable cells to cleave the tetrazolium salt WST-1 to formazan by their mitochondrial succinate-tetrazolium-reductase system. Cells were cultured at an initial density of 5000 cells/well in 96-well plates for 48 h. Then, cells were treated with the nitriles (0.3 to 30 mM, solved in distilled water) for 72 h. As positive control, 0.01% Triton X-100 was used. Following compound exposure and incubation, the WST 1 assay was performed according to the manufacturer’s instructions.
# The median growth inhibitory concentration (IC50) for compound cytotoxicity was calculated using Graphpad Prism 5.0 software (La Jolla, CA). After logarithmic transformation, IC50 values were calculated with equation 1: […]
# [2] = tested on: HepG2 cells; parameters: method as in Lamy et al. (2009); details: HepG2, Comet assay and micronucleus test; ref Lamy et al. (2009); cited from earlier work
# [3] = tested on: primary murine hepatocytes; experiment: WST-1 cell viability in primary murine hepatocytes; assay type: cell-based, mouse; details: 72 h
# Experimental: Murine hepatocytes were obtained from 8–16 week-old, male C57BL6 mice (Charles River Laboratory, Sulzfeld, Germany) as described elsewhere. The institutional and national guidelines for the care and use of animals were followed, and all experimental procedures were approved by the institutional Animal Care and Use Committee at the University of Freiburg according to § 8.I of the Animal Welfare Act. 2–2.2 × 10^5 cells were plated in 24 well plates. The cells were left undisturbed for 4 h in a 5% CO2 atmosphere at 37 °C and then the medium was changed to serum free Williams’ Medium E supplemented with 100 nM dexamethasone. Within 24 h the cells were exposed to the test compounds and controls for 72 h.
# as §2
# [4] = tested on: HepG2 cells; experiment: Comet assay (DNA strand breaks) in HepG2 cells; assay type: cell-based, human; details: HepG2, 24 h; for concentration with significant increase in DNA strand breaks: Olive Tail Moment and percent tail DNA
# Experimental: (§3) The single cell gel electrophoresis assay also known as Comet assay was carried out as described earlier with slight modifications. The percent tail DNA and the Olive Tail Moment (OTM) were calculated as indicators of DNA damage. For each sample, 102 systematically screened cells were evaluated. Briefly, HepG2 cells were seeded onto well plates. After 48 h of growth, the cells were exposed to the nitriles or ITC for 24 h. As positive control 50 μM B(α)P and as solvent control distilled water or 0.1% DMSO was used. To analyze the repair capacity of HepG2 cells, the test substances were removed after 24 h and incubated for another 24 h before the assay was terminated.
# [5] = tested on: HepG2-CYP2E1 cells; experiment: WST-1 cytotoxicity assay in CYP2E1-overexpressing HepG2 cells versus vector control cells; assay type: cell-based, human; details: 10 mM, 72 h
# Experimental: as §1, §2
# [6] = tested on: quinone reductase; details: cited from earlier work
# [7] = tested on: HepG2-CYP2E1 cells; experiment: Comet assay in CYP2E1 transfected HepG2 and vector cells; assay type: cell-based, human; details: 24 h
# Experimental: as §1, §3
# [8] = tested on: activated human T lymphocytes; parameters: method as in PMID 27161402; details: cited from earlier work
# [9] = tested on: UM-2BB cells; parameters: method as in Lui et al. (2003); details: MTT-assay, ref Lui et al. (2003); cited from earlier work
# [10] = tested on: Hepa1c1c7 cells; details: Hepa1c1c7, 5 mM, 72 h; cited from earlier work
# [11] = Homo sapiens, read-out: IC50 (median growth inhibitory concentration)
smiles,measurement,setting,value
"N#CCCc1ccccc1 [2-phenylethyl-CN, 3-phenylpropanenitrile]",IC50,[1]; [11],18.2 mM
"CSCCCC#N [3-MTP-CN, 4-(methylthio)butylnitrile]",IC50,[1]; [11],19.5 mM
"CSCCCN=C=S [3-MTP-ITC, 3-(methylthio)propyl ITC]",concentration inducing DNA damage and mutagenicity,[2],exceeding 1 μM
"C=CCCC#N [3-but-CN, 4-pentenenitrile]",change in cell viability,[1],did not result in significant changes in cell viability
same,viability of hepatocytes,[3],significantly decreased the viability of hepatocytes in a concentration-dependent manner
"CSCCCCC#N [4-MTB-CN, 5-(methylthio)pentylnitrile]","DNA strand breaks, concentration dependence",[4],concentration-dependent increase in DNA strand breaks
same,concentration with significant increase in DNA strand breaks,[4],≥ 3 µM
same,IC50,[1]; [11],17.9 mM
same,concentration at which a viability loss was detected,[3],30000 µM
same,difference in cytotoxicity between CYP2E1-overexpressing and vector control cells,[5],significant difference in cytotoxicity
"C=CCCCC#N [4-pent-CN, 5-hexenenitrile]",change in cell viability,[1],did not result in significant changes in cell viability
"CSCCCCCC#N [5-MTP-CN, 6-(methylthio)hexylnitrile]",IC50,[1]; [11],12.2 mM
"CSCCCCCN=C=S [5-MTP-ITC, 5-(methylthio)pentyl ITC]",concentration inducing DNA damage and mutagenicity,[2],exceeding 1 μM
"CSCCCCCCC#N [6-MTH-CN, 7-(methylthio)heptylnitrile]",IC50,[1]; [11],8.15 mM
"C[S+]([O-])CCCCN=C=S (centres unmarked) [Sulforaphane, 4-(methylsulfinyl)butyl ITC]",concentration inducing quinone reductase,[6],2.5 µM
same,maximum induction of quinone reductase,[6],3.1 fold
"C=CCC#N [allyl-CN, 3-butenenitrile]",change in cell viability,[1],did not result in significant changes in cell viability
same,viability of hepatocytes,[3],significantly decreased the viability of hepatocytes in a concentration-dependent manner
"N#CCc1ccccc1 [benzyl-CN, phenylacetonitrile]","DNA strand breaks, concentration dependence",[4],concentration-dependent increase in DNA strand breaks
same,DNA damage compared with benzyl ITC,[4]; 3 μM,comparable with the effect of benzyl ITC at the same concentration; also recorded: comparable with the effect of benzyl-ITC in the same concentration
same,concentration with significant increase in DNA strand breaks,[4],≥ 3 µM
same,IC50,[1]; [11],19.9 mM
same,concentration with significant increment of DNA strand breaks by CYP2E1-overexpression as compared to vector control cells,[7],≥ 3 µM
same,influence on PGE2 release,[8]; 1 mM,did not influence PGE2 release
same,viability of hepatocytes,[3],significantly decreased the viability of hepatocytes in a concentration-dependent manner
"S=C=NCc1ccccc1 [benzyl-ITC, benzyl ITC, reference compound]",IC50,[1]; read-out: IC50,0.0158 mM
same,cytotoxic potency relative to the nitriles,"[1]; HepG2, ITC versus corresponding nitrile",1000 fold
same,IC50,[9],0.017 mM
same,concentration with strong interference with pro-inflammatory response including PGE2 release,[8]; activated human T lymphocytes,≥ 3 µM
"C=CC(O)CC#N (centres unmarked) [crambene, 3-hydroxy-4-pentenenitrile]",cell proliferation diminished by,[10],76%
same,cell viability reduced by,[10],12%
"C[S+]([O-])CCCCC#N (centres unmarked) [sulforaphane nitrile, 5-(methylsulfinyl)pentylnitrile]",concentration reaching a similar induction of quinone reductase as sulforaphane,[6],2 mM
